# Measured values reported in patent US20260297081A1, “COMPOUNDS AND METHODS OF TREATING CANCERS” (Cullgen Inc., priority 2023, published 2026).
# pIC50: −log10 of the molar value.
# Tested on: MCF7 cells
# Test: Anti-proliferation (viability) of MCF7 cells (Table 7, FIG. 2B)
# Assay type: cell-based
# Settings: Homo sapiens, MCF7, MCF7 cells, 3-6 days, 10-point serial dilution; read-out: GI IC50 in MCF-7
row,pIC50,SMILES
1,< 7.00,"CNc1ccc(C(=O)Nc2ccc(N(C)C)nn2)c(NC2CN(C(=O)CN3CCN(Cc4ccc(Nc5ncc6c(C)c(C(C)=O)c(=O)n(C7CCCC7)c6n5)nc4)CC3)C2)n1 [CPD-269, 2-((1-(2-(4-((6-((6-acetyl-8-cyclopentyl-5-methyl-7-oxo-7,8-dihydropyrido[2,3-d]pyrimidin-2-yl)amino)pyridin-3-yl)methyl)piperazin-1-yl)acetyl)azetidin-3-yl)amino)-N-(6-(dimethylamino)pyridazin-3-yl)-6-(methylamino)nicotinamide]"
2,< 7.00,"CC(=O)c1c(C)c2cnc(Nc3ccc(N4CCN(CC(=O)N5CCC(Nc6nc(NC(C)C)ccc6C(=O)Nc6cc(C)on6)CC5)CC4)cn3)nc2n(C2CCCC2)c1=O [CPD-290, 2-((1-(2-(4-(6-((6-acetyl-8-cyclopentyl-5-methyl-7-oxo-7,8-dihydropyrido[2,3-d]pyrimidin-2-yl)amino)pyridin-3-yl)piperazin-1-yl)acetyl)piperidin-4-yl)amino)-6-(isopropylamino)-N-(5-methylisoxazol-3-yl)nicotinamide]"
3,< 7.00,"CC(=O)c1c(C)c2cnc(Nc3ccc(N4CCN(CC(=O)NC5CC6(C5)CC(Nc5nc(N(C)C)ccc5C(=O)Nc5cn(C)c(C7CC7)n5)C6)CC4)cn3)nc2n(C2CCCC2)c1=O (stereo not shown) [CPD-291, 2-((6-(2-(4-(6-((6-acetyl-8-cyclopentyl-5-methyl-7-oxo-7,8-dihydropyrido[2,3-d]pyrimidin-2-yl)amino)pyridin-3-yl)piperazin-1-yl)acetamido)spiro[3.3]heptan-2-yl)amino)-N-(2-cyclopropyl-1-methyl-1H-imidazol-4-yl)-6-(dimethylamino)nicotinamide]"
4,< 7.00,"CC(=O)c1c(C)c2cnc(Nc3ccc(N4CCN(CC(=O)NC5CC6(C5)CC(Nc5nc(OC(C)C)ccc5C(=O)Nc5cn(C)c(C7CC7)n5)C6)CC4)cn3)nc2n(C2CCCC2)c1=O (stereo not shown) [CPD-292, 2-((6-(2-(4-(6-((6-acetyl-8-cyclopentyl-5-methyl-7-oxo-7,8-dihydropyrido[2,3-d]pyrimidin-2-yl)amino)pyridin-3-yl)piperazin-1-yl)acetamido)spiro[3.3]heptan-2-yl)amino)-N-(2-cyclopropyl-1-methyl-1H-imidazol-4-yl)-6-isopropoxynicotinamide]"
5,< 7.00,"CCNc1ccc(C(=O)Nc2cn(C)c(C3CC3)n2)c(NC2CC3(CC(NC(=O)CN4CCN(c5ccc(Nc6ncc7c(C)c(C(C)=O)c(=O)n(C8CCCC8)c7n6)nc5)CC4)C3)C2)n1 (stereo not shown) [CPD-293, 2-((6-(2-(4-(6-((6-acetyl-8-cyclopentyl-5-methyl-7-oxo-7,8-dihydropyrido[2,3-d]pyrimidin-2-yl)amino)pyridin-3-yl)piperazin-1-yl)acetamido)spiro[3.3]heptan-2-yl)amino)-N-(2-cyclopropyl-1-methyl-1H-imidazol-4-yl)-6-(ethylamino)nicotinamide]"
6,< 7.00,"[2H]C([2H])([2H])Nc1ccc(C(=O)Nc2cc(C)on2)c(NC2CCC(NC(=O)CN3CCN(c4ccc(Nc5ncc6c(C)c(C(C)=O)c(=O)n(C7CCCC7)c6n5)nc4)CC3)C2)n1 (stereo not shown) [CPD-294, 2-((3-(2-(4-(6-((6-acetyl-8-cyclopentyl-5-methyl-7-oxo-7,8-dihydropyrido[2,3-d]pyrimidin-2-yl)amino)pyridin-3-yl)piperazin-1-yl)acetamido)cyclopentyl)amino)-6-((methyl-d3)amino)-N-(5-methylisoxazol-3-yl)nicotinamide]"
7,< 7.00,"CC(=O)c1c(C)c2cnc(Nc3ccc(N4CCN(CC(=O)NC5CCC(Nc6nc(NC(C)C)ccc6C(=O)Nc6cc(C)on6)C5)CC4)cn3)nc2n(C2CCCC2)c1=O (stereo not shown) [CPD-295, 2-((3-(2-(4-(6-((6-acetyl-8-cyclopentyl-5-methyl-7-oxo-7,8-dihydropyrido[2,3-d]pyrimidin-2-yl)amino)pyridin-3-yl)piperazin-1-yl)acetamido)cyclopentyl)amino)-6-(isopropylamino)-N-(5-methylisoxazol-3-yl)nicotinamide]"
